Results reported in publication PMC5848165 (Toxins, 2018).
“Also recorded” adds a separate entry of the source. Residues, ends and D or L forms follow the SMILES beside them.

Key:
[1] = tested on: TTX-R sodium channels from rat DRG neurons; assay: Whole-cell patch clamp, TTX-R sodium currents in rat DRG neurons; format: cell-based, rat (Sprague-Dawley); conditions: 1 µM synthetic JZTX-34; 100 nM TTX in external solution; −10 mV from −80 mV
[2] = tested on: Nav1.7; assay: Gating properties of Nav1.7 (current-voltage, steady-state activation and inactivation); format: cell-based, human
Experimental: We investigated the effects of this toxin on the gating properties of Nav1.7. The current-voltage relationship of Nav1.7 was investigated using step depolarization ranging from −80 to +80 mV from a holding potential of −80 mV. Under control conditions, the threshold of initial activation was about −40 mV, and the inward current peaked at −20 mV. […] The midpoint of channel activation before and after application of 1 µM toxin was −27.9 ± 3.3 and −28.1 ± 2.9 mV, respectively (Figure S3B). […] The effect of JZTX-34 on steady-state inactivation was also investigated using a standard two-pulse protocol as described in the legend. […]
cDNA genes encoding rat Nav1.1, Nav1.2, Nav1.3, Nav1.4, Nav1.5, human Nav1.7 (hNav1.7), and hNav1.8 were subcloned into the vectors pRGB4 and pcDNA3.1-mod, respectively. The chimera of Nav1.5 (Nav1.7-DII-S3-S4) and Nav1.7 (Nav1.5-DIV-S3-S4) were constructed according the methods described previously. Mutations of Nav1.5 and Nav1.7 were constructed using QuikChange II XL Site-Directed Mutagenesis kit (Agilent Technologies Inc, Palo Alto, CA, USA). All chimera and mutations were sequenced to determine the right sequences.
The HEK293T cells were maintained in standard culture conditions (5% CO2 and 37 °C). Then, 10% fetal bovine serum was added to Dulbecco’s modified Eagle’s medium. Sodium channel subtypes (Nav1.1–Nav1.5, Nav1.7), the chimera and mutants of Nav1.5 and Nav1.7 with β1subnit tagged with eGFP in a molar ratio of 2:1, were transiently co-transfected into HEK293 cells using Lipofectamine 3000 (Invitrogen, Carlsbad, CA, USA). Nav1.8, β1subnit, and eGFP were co-transfected into ND cells using the same protocol. After culturing for 36–72 h, cells with obvious green fluorescence were selected for sodium currents recordings the internal solution for sodium currents recording that contained (in mM) 140 CsF, 5 NaCl, 10 HEPES, 3 Na2-ATP, and 10 EGTA. […]
Sodium currents were recorded from DRG, HEK293, and ND cells by the whole-cell patch-clamp technique at 25 °C. […] Experiments date were acquired from whole-cell Axon 700B patch clamp amplifier (Molecular Devices, Sunnyvale, CA, USA) and analyzed by the program Clampfit10.0 (Molecular Devices, Sunnyvale, CA, USA) and Sigmaplot. […]
Data from Axon 700B patch clamp were analyzed by Clampfit10.0 (Molecular Devices, Sunnyvale, CA, USA). […] The G-V curves were obtained by calculating the conductance (G) at each voltage (V) using the equation G = I/(V1 − Vrev), with Vrev being the reversal potential determined for each cell individually. […] All the results from patch clamp and animal models are expressed as means ± standard error of the mean (SEM). Statistical significance was calculated using Student’s t-test and was defined as p < 0.05. […]

[3] = tested on: hot plate test in mice; assay: Hot plate test; format: in vivo, mouse (Kunming); conditions: for hot plate latency: 120 min, baseline about 10 s, n = 6
Experimental: Figure 6 Effects of JZTX-34 on pain. (A) Effects of JZTX-34 on the early phase (0–5 min) and late phase (15–30 min) of formalin-induced paw licking response in mice. (B) Effects of JZTX-34 on the acetic acid-induced writhing response in mice. (C)Effects of JZTX-34 on the hot plate test in mice.
Mice with a latency time about 10 s were selected for the hot plate test. […] After administration of test samples, the latency time was recorded at the time points of 30 min, 60 min, 120 min, and 180 min (Figure 6C). Negative control animals received the same volume of vehicle.
The synthesized JZTX-34 was obtained according to the procedure as previously described. […] Rats (Sprague-Dawley) and Kunming mice were maintained in the Laboratory of Protein Chemistry of Hunan Normal University. All of the experimental involving animals were approved by the Animal Care and Use Committee of Hunan Normal University (2016-273, 13 October 2016).
Mice were put on a hot plate apparatus (model HZ66-ZH-YLS-6B, Shanghai, China) in order to test response time to a thermal stimulus. The responses time of mice at about 10 s was selected for the test. […] Hind paw licking or jumping were regarded as a sign to avoid heat nociception.
Data from Axon 700B patch clamp were analyzed by Clampfit10.0 (Molecular Devices, Sunnyvale, CA, USA). Dose-response curves were fitted by the Hill logistic equation: y = 1 − (1 − fmax)/[…]. In this equation, n stands an empirical Hill coefficient and fmax is the fraction of current resistant to inhibition at high toxin (Tx) concentration. The G-V curves were obtained by calculating the conductance (G) at each voltage (V) using the equation G = I/(V1 − Vrev), with Vrev being the reversal potential determined for each cell individually. G-V curves were fitted using a Boltzmann equation—y = 1/(1 + exp[(Va − V)/κ])—in which Va, V, and κ represent midpoint voltage of kinetics, test potential, and slope factor, respectively. […] Statistical significance was calculated using Student’s t-test and was defined as p < 0.05.

## CC(C)C[C@@H]1NC(=O)[C@H](Cc2c[nH]c3ccccc23)NC(=O)[C@H](CCC(=O)O)NC(=O)[C@H](CCCNC(=N)N)NC(=O)[C@@H](NC(=O)[C@H](C)N)CSSC[C@@H]2NC(=O)[C@@H]3CSSC[C@@H](C(=O)N[C@H](C(=O)N[C@@H](Cc4c[nH]c5ccccc45)C(=O)N[C@@H](CC(=O)O)C(=O)N[C@@H](Cc4c[nH]c5ccccc45)C(=O)N[C@H](C(=O)N[C@H](C(=O)O)C(C)C)[C@@H](C)O)C(C)C)NC(=O)[C@H](Cc4c[nH]cn4)NC(=O)[C@H](Cc4ccc(O)cc4)NC(=O)[C@@H]4CCCN4C(=O)[C@H](Cc4c[nH]c5ccccc45)NC(=O)[C@H](CCCCN)NC(=O)[C@H](CCCCN)NC(=O)[C@H](CCCNC(=N)N)NC(=O)[C@H](CSSC[C@H](NC(=O)CNC(=O)CNC1=O)C(=O)N[C@@H](CO)C(=O)N[C@@H](CCCCN)C(=O)N[C@@H](CC(=O)O)C(=O)N[C@@H](C)C(=O)N[C@@H](CC(=O)O)C(=O)N3)NC(=O)[C@H](CCC(=O)O)NC(=O)[C@H](CC(C)C)NC(=O)[C@H](Cc1c[nH]cn1)NC(=O)[C@H](C)NC2=O [JZTX-34, Jingzhaotoxin-34] (HELM PEPTIDE1{A.C.R.E.W.L.G.G.C.S.K.D.A.D.C.C.A.H.L.E.C.R.K.K.W.P.Y.H.C.V.W.D.W.T.V}$PEPTIDE1,PEPTIDE1,2:R3-16:R3|PEPTIDE1,PEPTIDE1,9:R3-21:R3|PEPTIDE1,PEPTIDE1,15:R3-29:R3$$$V2.0; N-terminus and C-terminus assumed)
[1]
  effect on TTX-R sodium currents: had no effect on TTX-R sodium currents
[2]; 1 µM
  shift of steady-state inactivation: small hyperpolarizing shift in the steady-state inactivation
[2]; 1 µM, "with or without" toxin −67.3 and −73.7 mV, respectively, 500 ms prepulse −100 to −10 mV, test pulse −10 mV 20 ms, n = 5
  midpoint of steady-state inactivation with toxin: about −67.3 mV
[2]; 1 µM, steps −80 to +80 mV from −80 mV holding
  current-voltage relationship of Nav1.7: did not alter the current-voltage relationship
[2]; after 1 µM toxin (before: −27.9 ± 3.3 mV), Boltzmann fit, n = 5
  midpoint of channel activation after toxin: −28.1 ± 2.9 mV
[3]; 0.5 mg/kg i.p.
  hot plate latency: 18.3 s
[3]; 1 mg/kg i.p.
  hot plate latency: 23.0 s
[3]; 2 mg/kg i.p.
  hot plate latency: 31.6 s
[3]; 0.5, 1 or 2 mg/kg i.p.
  time of maximal analgesia, hot plate: 120 min
[3]; JZTX-34 2 mg/kg vs morphine 5 mg/kg
  hot plate, analgesia vs morphine: longer duration and is more effective than morphine; also recorded: longer and stronger analgesia effects than 5 mg/kg morphine
